Measured values taken from patent US6300112A, “β-xylosidase, nucleotide sequence encoding it, and use thereof” (Danisco Ingredients A.S (Danisco A/S), priority 1995, dated 2001).

Tests used:
[1] = target: T1, Aspergillus niger β-xylosidase I (X-I, xylD), SEQ ID NO. 1 (Aspergillus niger, UniProt O00089); assay: Inhibition of β-xylosidase X-I by xylose; type: biochemical; settings: β-xylosidase X-I of the invention; read-out: inhibition Ki (mM xylosc)
T1 construct: Mono Q peak I
Description: (§1) Table A summarises the specificity pattern of two β-xylosidases X-I and X-II of the invention--presumably differing only in their glycosylation pattern, not in their amino acid sequence--and of the β-xylosidase reported by Rodionova et al., and their inhibition by xylose.
(§2) DEAE-Sephadex A-50 was equilibrated in 50 mM sodium acetate buffer pH 5.0 and was added to the culture filtrate. After 30-60 minutes of stirring at 4° C., the DEAE-Sephadex together with the culture filtrate were passed through a funnel with a glass filter holder and the DEAE-Sephadex A-50 was transferred to a column. […] Fractions containing β-xylosidase activity, as was detected using the chromogenic substrate 4-methylumbelliferyl-β-D-xyloside (detects β-xylosidases and endo-xylanases) (Sigma #M7008), were pooled and desalted by dialysis against Millipore water and subsequently dialysed against 20 mM piperazine-HCl buffer pH 5.0. […] The specific activity of both β-xylosidase I and II towards the artificial substrate PNP-X was determined as described by Rodionova et al., 1983, to be respectively 60.2 and 60.9 U/mg protein. In addition the activity against PNP-β-D-glucopyranoside (Sigma #N7006) was determined to be 0.2 and 0.3 U/mg, against PNP-β-D-galactopyranoside (Sigma #N1252) 0.0 and 0.0 U/mg and against PNP-β-L-arabinofuranoside(Sigma #N3641) 2.8 and 3.4 U/mg respectively for β-xylosidase I and II.

[2] = target: T2, Aspergillus niger β-xylosidase II (X-II, xylD), SEQ ID NO. 1 (Aspergillus niger, UniProt O00089); assay: Inhibition of β-xylosidase X-II by xylose; type: biochemical; settings: β-xylosidase X-II of the invention; read-out: inhibition Ki (mM xylosc)
T2 construct: Mono Q peak II
T2 sequence (O00089 27-804): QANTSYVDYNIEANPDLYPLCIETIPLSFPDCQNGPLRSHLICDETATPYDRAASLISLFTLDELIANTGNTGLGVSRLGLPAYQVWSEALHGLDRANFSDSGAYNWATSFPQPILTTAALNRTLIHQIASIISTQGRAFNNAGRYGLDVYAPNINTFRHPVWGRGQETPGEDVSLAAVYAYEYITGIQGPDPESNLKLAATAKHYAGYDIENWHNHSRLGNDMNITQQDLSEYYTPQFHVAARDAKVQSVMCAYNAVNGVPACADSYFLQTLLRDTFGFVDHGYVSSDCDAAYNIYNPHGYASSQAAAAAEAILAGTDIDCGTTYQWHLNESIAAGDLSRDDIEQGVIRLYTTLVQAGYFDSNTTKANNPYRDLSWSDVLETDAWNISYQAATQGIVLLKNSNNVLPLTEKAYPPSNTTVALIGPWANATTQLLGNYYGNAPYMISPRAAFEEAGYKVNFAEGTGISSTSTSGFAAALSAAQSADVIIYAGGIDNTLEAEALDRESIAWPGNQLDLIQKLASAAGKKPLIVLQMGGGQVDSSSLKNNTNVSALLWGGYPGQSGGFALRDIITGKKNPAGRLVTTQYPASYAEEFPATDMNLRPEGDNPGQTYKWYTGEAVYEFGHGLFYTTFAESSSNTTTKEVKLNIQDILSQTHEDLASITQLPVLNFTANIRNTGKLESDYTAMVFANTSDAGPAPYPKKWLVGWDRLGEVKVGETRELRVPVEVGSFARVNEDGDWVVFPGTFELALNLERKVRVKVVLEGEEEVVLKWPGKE
Description: as §1, §2

[3] = target: Aspergillus niger β-xylosidase according to Rodionova et al. (1983); settings: β-xyl (Rodionova), comparison enzyme; read-out: inhibition Ki (mM xylosc); cited from earlier work

T1 sequence (O00089 27-804): as above

xylose
Ki [1]: 9.8 mM | Ki [2]: 13.2 mM | Ki [3]: 2.9 mM
